Test results from ChEMBL document CHEMBL3272155, “Synthesis of beta-spiro[pyrrolidinoindolines], their binding to the glycine receptor, and in vivo biological acitivity” (J Med Chem, 1977).

Legend:
[1] = test system: Mus musculus; assay: Induction of clonic convulsions in ip dosed COBS-CDI mouse measured after 3 hrs; type: functional
[2] = target: T1, Glycine receptor subunit alpha-1 (Rattus norvegicus, UniProt P07727); assay: Displacement of [3H]Strychnine from glycine receptor in rat brain synaptic membranes; type: cell membranes
T1 sequence (P07727 whole entry): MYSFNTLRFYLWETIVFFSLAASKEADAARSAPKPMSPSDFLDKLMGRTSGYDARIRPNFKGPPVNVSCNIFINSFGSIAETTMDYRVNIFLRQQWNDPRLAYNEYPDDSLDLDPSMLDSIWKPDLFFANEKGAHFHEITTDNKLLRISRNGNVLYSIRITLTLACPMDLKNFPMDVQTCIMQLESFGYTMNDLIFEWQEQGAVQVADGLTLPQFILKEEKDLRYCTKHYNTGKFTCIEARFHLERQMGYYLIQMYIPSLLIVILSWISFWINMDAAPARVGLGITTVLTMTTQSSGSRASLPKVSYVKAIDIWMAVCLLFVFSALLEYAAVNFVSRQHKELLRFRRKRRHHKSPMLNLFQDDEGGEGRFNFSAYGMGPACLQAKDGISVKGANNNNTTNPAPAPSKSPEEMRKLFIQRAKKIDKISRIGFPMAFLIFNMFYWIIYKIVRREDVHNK

[3] = test system: Mus musculus; assay: Induction of tonic convulsions in ip dosed COBS-CDI mouse measured after 3 hrs; type: functional
[4] = Toxicity in ip dosed COBS-CDI mouse assessed as mortality measured after 3 hrs; type: organism-based; details: in vivo

SMILES | ED50 [1] [µmol/kg] | IC50 [2] [µM] | ED50 [3] [µmol/kg] | LD50 at 3 h [4] [µmol/kg]
CC(=O)N1CC2(CCCC2)c2ccccc21 | 1650 | > 1000 | > 7420 | 6880
CC(=O)N1CC2(CCN(C)C2)c2ccccc21 (configuration not stated) | 79.6 | 23.6 | 83.9 | 94.8
CC(=O)N1CC2(CCN(Cc3ccccc3)C2)c2ccccc21.O=C(O)C(=O)O (configuration not stated) | 252 | 31 | > 1010 | 505
C=CCN1CCC2(C1)CN(C(C)=O)c1ccccc12.O=C(O)C(=O)O (configuration not stated) | 300 | 67.9 | 434 | 396
CC(=O)N1CC2(CCNC2)c2ccccc21.O=C(O)C(=O)O (configuration not stated) | 542 | 295 | 746 | 687
CN1CCC2(CNc3ccccc32)C1 (configuration not stated) | 365 | 282 | 412 | 412
CC(=O)N1CCc2ccccc21 | > 2480 | > 1000 | > 2480 | 1400
CC(=O)N1c2ccccc2C(C)(C)C1C (racemic) | < 1970 | > 1000 | > 3940 | 2830
